For six molecules, tissue uptake results are on record in patent US12246076B2, “Radiolabeled compounds for in vivo imaging of gastrin-releasing peptide receptor (GRPR) and treatment of GRPR-related disorders” (PROVINCIAL HEALTH SERVICES AUTHORITY, priority 2022, dated 2025).

As usually defined, the tissue uptake is the percentage of the injected dose found per gram of tissue.

A short description of series [1]: Ex vivo biodistribution in PC-3 tumor-bearing mice. The conditions noted are these: male, NRG, mouse, iv, total radioactivity, 1 h post-injection, mice bearing PC-3 tumor xenografts, n = 4.
Protocol: (§1) All imaging and biodistribution studies were performed using male NOD.Cg-Rag1^tm1MoM II2rg^tm1WI/SzJ (NRG) mice and conducted according to the guidelines established by the Canadian Council on Animal Care and approved by Animal Ethics Committee of the University of British Columbia. For tumor inoculations, mice were anesthetized by inhalation with 2% isoflurane in oxygen and implanted subcutaneously with 5×10^6 PC-3 cells below the left shoulder. Imaging and biodistribution studies were performed only after tumors grew to 5-8 mm in diameter.
(§2) For PET/CT imaging studies, ˜3-4 MBq of the ^68Ga-labeled tracer was injected through the tail vein. Mice were allowed to recover and roam freely in the cages after injecting the tracer. At 45 min post-injection (p.i.), mice were sedated again and positioned on the scanner. First, a 10 min CT scan was conducted for localization and attenuation correction for reconstruction of PET images, before a 10 min PET image was acquired. Heating pads were used during the entire procedure to keep the mice warm. For ex vivo biodistribution studies, mice were injected with ˜1.5-3 MBq of the ^68Ga-labeled tracer. At 1 h p.i., mice were euthanized, blood was drawn from heart, and organs/tissues of interest were collected, rinsed with PBS, blotted dry, weighed, and counted using an automated gamma counter. The uptake in each organ/tissue was normalized to the injected dose and expressed as the percentage of the injected dose per gram of tissue (% ID/g).
(§3) All imaging and biodistribution studies were performed using male NOD.Cg-Rag1tm1Mom II2rgtm1WjI/SzJ (NRG) mice and conducted according to the guidelines established by the Canadian Council on Animal Care and approved by Animal Ethics Committee of the University of British Columbia. For tumor inoculations, mice were anesthetized by inhalation with 2% isoflurane in oxygen and implanted subcutaneously with 5×10^6 PC-3 cells below the left shoulder. Imaging and biodistribution studies were performed only after tumors grew to 5-8 mm in diameter.
(§4) For PET/CT imaging studies, ˜5 MBq of the ^68Ga-labeled tracer was injected through the tail vein. Mice were allowed to recover and roam freely in the cages after injecting the tracer. At 45 min post-injection (p.i.), mice were sedated again and positioned on the scanner. First, a 10 min CT scan was conducted for localization and attenuation correction for reconstruction of PET images, before a 10 min PET image was acquired. Heating pads were used during the entire procedure to keep the mice warm. For ex vivo biodistribution studies, mice were injected with ˜3 MBq of the 68Ga-labeled tracer. At 1 h p.i., mice were euthanized, blood was drawn from heart, and organs/tissues of interest were collected, rinsed with PBS, blotted dry, weighed, and counted using an automated gamma counter.
A short description of a further series: in vivo. The following applies: male, NRG, mouse, iv, total radioactivity.
Where [2] appears, read: PC-3 tumor, Biodistribution PC3 tumor Mean.
Where [3] appears, read: adrenal, Biodistribution Adrenal Mean.
The mark [4] stands for this setting: bone, Biodistribution Bone Mean.
[5] abbreviates: brain, Biodistribution Brain Mean.
Setting [6] is: heart, Biodistribution Heart Mean.
Where [7] appears, read: kidneys, Biodistribution Kidneys Mean.
The mark [8] stands for this setting: liver, Biodistribution Liver Mean.
The mark [9] stands for this setting: lungs, Biodistribution Lungs Mean.
Setting [10] is: muscle, Biodistribution Muscle Mean.
[11] abbreviates: pancreas, Biodistribution Pancreas Mean.
Where [12] appears, read: seminal, Biodistribution Seminal Mean.
The mark [13] stands for this setting: small intestine, Biodistribution Small Intestine Mean.
Setting [14] is: spleen, Biodistribution Spleen Mean.
The mark [15] stands for this setting: stomach, Biodistribution Stomach Mean.
Where [16] appears, read: testes, Biodistribution Testes Mean.
The mark [17] stands for this setting: whole blood, Biodistribution Blood Mean.
[18] abbreviates: large intestine, Biodistribution Large Intestine Mean.

Numbered stars: 1 amine (or outer) side, 2 acyl side, 3 side chain; on linkers, the order of the positions; unused ones are H or OH. Square brackets hold non-standard residues; d marks the D form. Peptide text beside a SMILES is read from it. * marks the point of attachment. DOTA = O=C(O)CN1CCN(CC(=O)O)CCN(CC(=O)*)CCN(CC(=O)O)CC1; Leuψ(CH2N)ThzNH2 = CC(C)C[C@@H](CN1CSC[C@H]1C(N)=O)N*; X1 = O=C(CN1CCC(N[*:1])CC1)[*:2]

Protocol for in vivo: as §1, §2, §3, §4

As to `CC(C)C[C@H](NC(=O)[C@H](Cc1c[nH]cn1)NC(=O)CNC(=O)[C@@H](NC(=O)[C@H](C)NC(=O)[C@H](Cc1c[nH]c2ccccc12)NC(=O)[C@H](CCC(N)=O)NC(=O)[C@@H](Cc1ccccc1)NC(=O)CN1CCC(NC(=O)CN2CCN(CC(=O)O)CCN(CC(=O)O)CCN(CC(=O)O)CC2)CC1)C(C)C)C(=O)N1CSC[C@H]1C(N)=O` [^68Ga-LW01025, metal not drawn], the tissue uptake at 1 h in series [1] (setting [2]) is 6.2 %ID/g; in series [1] (setting [3]) it was 0.54 %ID/g; in series [1] (setting [4]), 0.24 %ID/g; in series [1] (setting [5]), 0.03 %ID/g; in series [1] (fat, Biodistribution Fat Mean), 0.09 %ID/g; in series [1] (setting [6]), 0.13 %ID/g. Moreover, the tissue uptake at 1 h was found to be 2.37 %ID/g in series [1] (setting [7]); 0.29 %ID/g in series [1] (setting [8]); 0.34 %ID/g in series [1] (setting [9]); 0.13 %ID/g in series [1] (setting [10]); 1.28 %ID/g in series [1] (setting [11]); 0.06 %ID/g in series [1] (setting [12]). The tissue uptake at 1 h in series [1] (setting [13]) stood at 0.56 %ID/g; in series [1] (setting [14]) it was 0.23 %ID/g; in series [1] (setting [15]) it was 0.54 %ID/g; in series [1] (setting [16]), 0.16 %ID/g; in series [1] (setting [17]) it was 0.34 %ID/g.
`CC(C)C[C@H](NC(=O)[C@H](Cc1c[nH]cn1)NC(=O)CNC(=O)[C@@H](NC(=O)[C@H](C)NC(=O)[C@H](Cc1c[nH]c2ccccc12)NC(=O)[C@H](CCC(N)=O)NC(=O)[C@@H](Cc1ccc2ccccc2c1)NC(=O)CN1CCC(NC(=O)CN2CCN(CC(=O)O)CCN(CC(=O)O)CCN(CC(=O)O)CC2)CC1)C(C)C)C(=O)N1CSC[C@H]1C(N)=O` [^68Ga-LW01029, metal not drawn]: the tissue uptake at 1 h in series [1] (setting [2]) is 4.7 %ID/g; in series [1] (setting [3]), 0.82 %ID/g; in series [1] (setting [4]) it was 0.19 %ID/g; in series [1] (setting [5]) it was 0.04 %ID/g; in series [1] (fat, Biodistribution Fat Mean), 0.18 %ID/g; in series [1] (setting [6]) it was 0.36 %ID/g. Moreover, the tissue uptake at 1 h stood at 4.73 %ID/g in series [1] (setting [7]); 0.96 %ID/g in series [1] (setting [18]); 0.63 %ID/g in series [1] (setting [8]); 1.82 %ID/g in series [1] (setting [9]); 0.23 %ID/g in series [1] (setting [10]); 2.56 %ID/g in series [1] (setting [11]). Moreover, the tissue uptake at 1 h in series [1] (setting [12]) is 0.13 %ID/g; in series [1] (setting [13]), 1.05 %ID/g; in series [1] (setting [14]), 0.45 %ID/g; in series [1] (setting [15]) it was 0.77 %ID/g; in series [1] (setting [16]) it was 0.33 %ID/g; in series [1] (setting [17]), 1.08 %ID/g.
Regarding `CC(C)C[C@@H](CN1CSC[C@H]1C(N)=O)NC(=O)[C@H](Cc1c[nH]cn1)NC(=O)CNC(=O)[C@@H](NC(=O)[C@H](C)NC(=O)[C@H](Cc1c[nH]c2ccccc12)NC(=O)[C@H](CCC(N)=O)NC(=O)[C@@H](Cc1ccc2ccccc2c1)NC(=O)CN1CCC(NC(=O)CN2CCN(CC(=O)O)CCN(CC(=O)O)CCN(CC(=O)O)CC2)CC1)C(C)C` [^68Ga-LW01059, metal not drawn], the tissue uptake at 1 h was determined as 6.84 %ID/g in series [1] (setting [2]); 1.81 %ID/g in series [1] (setting [3]); 0.42 %ID/g in series [1] (setting [4]); 0.06 %ID/g in series [1] (setting [5]); 0.19 %ID/g in series [1] (fat, Biodistribution Fat Mean); 0.66 %ID/g in series [1] (setting [6]). Moreover, the tissue uptake at 1 h in series [1] (setting [7]) was 4.49 %ID/g; in series [1] (setting [18]) it was 0.66 %ID/g; in series [1] (setting [8]), 21.5 %ID/g; in series [1] (setting [9]), 3.05 %ID/g; in series [1] (setting [10]), 0.28 %ID/g; in series [1] (setting [11]), 7.26 %ID/g. In addition, the tissue uptake at 1 h in series [1] (setting [13]) stood at 2.15 %ID/g; in series [1] (setting [14]), 0.68 %ID/g; in series [1] (setting [15]) it was 1.1 %ID/g; in series [1] (setting [16]) it was 0.33 %ID/g; in series [1] (setting [17]), 2.16 %ID/g.
Take `CC(C)C[C@@H](CN1CSC[C@H]1C(N)=O)NC(=O)[C@H](Cc1c[nH]cn1)NC(=O)CNC(=O)[C@@H](NC(=O)[C@H](C)NC(=O)[C@H](Cc1c[nH]c2ccccc12)NC(=O)[C@H](Cc1c[nH]cn1)NC(=O)[C@@H](Cc1ccccc1)NC(=O)CN1CCC(NC(=O)CN2CCN(CC(=O)O)CCN(CC(=O)O)CCN(CC(=O)O)CC2)CC1)C(C)C` [^68Ga-LW01102, metal not drawn] ({DOTA}-[X1][dF]HWAVGH-{Leuψ(CH2N)ThzNH2}): the tissue uptake at 1 h in series [1] (setting [2]) turned out to be 7.46 %ID/g; in series [1] (setting [3]), 1.36 %ID/g; in series [1] (setting [4]), 0.13 %ID/g; in series [1] (setting [5]) it was 0.04 %ID/g; in series [1] (fat, Biodistribution Fat Mean) it was 0.09 %ID/g; in series [1] (setting [6]), 0.36 %ID/g. Also, the tissue uptake at 1 h in series [1] (setting [7]) came to 6.3 %ID/g; in series [1] (setting [18]) it was 1.25 %ID/g; in series [1] (setting [8]) it was 3.22 %ID/g; in series [1] (setting [9]), 1.55 %ID/g; in series [1] (setting [10]), 0.18 %ID/g; in series [1] (setting [11]), 13.1 %ID/g. For the same molecule, the tissue uptake at 1 h in series [1] (setting [12]) came to 0.23 %ID/g; in series [1] (setting [13]), 2.85 %ID/g; in series [1] (setting [14]) it was 0.52 %ID/g; in series [1] (setting [15]), 1.23 %ID/g; in series [1] (setting [16]), 0.33 %ID/g; in series [1] (setting [17]), 1.13 %ID/g.
As to `CC(C)C[C@H](NC(=O)[C@H](Cc1c[nH]cn1)N(C)C(=O)CNC(=O)[C@@H](NC(=O)[C@H](C)NC(=O)[C@H](Cc1c[nH]c2ccccc12)NC(=O)[C@H](CCC(N)=O)NC(=O)[C@@H](Cc1ccccc1)NC(=O)CN1CCC(NC(=O)CN2CCN(CC(=O)O)CCN(CC(=O)O)CCN(CC(=O)O)CC2)CC1)C(C)C)C(=O)N1CSC[C@H]1C(N)=O` [^68Ga-LW01107, metal not drawn], the tissue uptake at 1 h in series [1] (setting [3]) was 0.32 %ID/g; in series [1] (setting [10]), 0.07 %ID/g; in series [1] (setting [12]) it was 0.04 %ID/g; in “in vivo” (Biodistribution Blood Mean), 0.3 %ID/g; in the series “in vivo” (Biodistribution Bone Mean), 0.06 %ID/g; in “in vivo” (Biodistribution Brain Mean), 0.01 %ID/g. Moreover, the tissue uptake at 1 h in “in vivo” (Biodistribution Fat Mean) turned out to be 0.05 %ID/g; in “in vivo” (Biodistribution Heart Mean), 0.11 %ID/g; in the series “in vivo” (Biodistribution Kidneys Mean) it was 1.88 %ID/g; in the series “in vivo” (Biodistribution Large Intestine Mean), 0.18 %ID/g; in “in vivo” (Biodistribution Liver Mean) it was 0.32 %ID/g; in the series “in vivo” (Biodistribution Lungs Mean), 0.28 %ID/g. Further, the tissue uptake at 1 h in “in vivo” (Biodistribution PC3 tumor Mean) is 7.05 %ID/g; in “in vivo” (Biodistribution Pancreas Mean), 0.39 %ID/g; in “in vivo” (Biodistribution Small Intestine Mean) it was 0.31 %ID/g; in the series “in vivo” (Biodistribution Spleen Mean), 0.13 %ID/g; in “in vivo” (Biodistribution Stomach Mean), 0.07 %ID/g; in “in vivo” (Biodistribution Testes Mean), 0.1 %ID/g.
On to `CC(C)C[C@@H](CN1CCC[C@H]1C(N)=O)NC(=O)[C@H](Cc1c[nH]cn1)NC(=O)CN(C)C(=O)[C@@H](NC(=O)[C@H](C)NC(=O)[C@H](Cc1c[nH]c2ccccc12)NC(=O)[C@H](CCC(N)=O)NC(=O)[C@@H](Cc1ccccc1)NC(=O)CN1CCC(NC(=O)CN2CCN(CC(=O)O)CCN(CC(=O)O)CCN(CC(=O)O)CC2)CC1)C(C)C` [^68Ga-LW02045, metal not drawn], for which the tissue uptake at 1 h amounted to 12.4 %ID/g in series [1] (setting [2]); 0.44 %ID/g in series [1] (setting [3]); 0.07 %ID/g in series [1] (setting [4]); 0.02 %ID/g in series [1] (setting [5]); 0.03 %ID/g in series [1] (fat, Biodistribution Fat Mean); 0.14 %ID/g in series [1] (setting [6]). For the same molecule, the tissue uptake at 1 h in series [1] (setting [7]) came to 2.54 %ID/g; in series [1] (setting [18]), 0.34 %ID/g; in series [1] (setting [8]), 0.37 %ID/g; in series [1] (setting [9]), 1.08 %ID/g; in series [1] (setting [10]) it was 0.1 %ID/g; in series [1] (setting [11]), 1.37 %ID/g. Moreover, the tissue uptake at 1 h amounted to 3.8 %ID/g in series [1] (setting [12]); 0.48 %ID/g in series [1] (setting [13]); 0.18 %ID/g in series [1] (setting [14]); 0.35 %ID/g in series [1] (setting [15]); 0.12 %ID/g in series [1] (setting [16]); 0.43 %ID/g in series [1] (setting [17]).
